Measured values taken from ChEMBL document CHEMBL1136042, “Design, synthesis, and neuraminidase inhibitory activity of GS-4071 analogues that utilize a novel hydrophobic paradigm” (Bioorg Med Chem Lett, 2002).
pKi: −log10 of the molar value.

experiment: The compound was tested for its inhibition against Neuraminidase of the influenza RNA virus

Compared with `C=CC[C@H]1CC(C(=O)O)=C[C@@H](OC(CC)CC)[C@@H]1NC(C)=O`, `C=CC[C@@H]1CC(C(=O)O)=C[C@@H](OC(C)C)[C@@H]1NC(C)=O` is 1.04 log units lower in pKi: 5.89 for the first, 4.85 for the second.

Compared with `CC(=O)N[C@@H]1[C@@H](CCO)CC(C(=O)O)=C[C@H]1OC(C)C`, `C=CC[C@H]1CC(C(=O)O)=C[C@@H](OC(C)C)[C@@H]1NC(C)=O` is 0.57 log units higher in pKi: 5.39 for the first, 5.96 for the second.

First: C=C[C@@H]1CC(C(=O)O)=C[C@@H](OC(C)C)[C@@H]1NC(C)=O
Second: C=C[C@H]1CC(C(=O)O)=C[C@@H](OC(C)C)[C@@H]1NC(C)=O
The pKi of the first is 3.19 log units lower: 4.16 for the first, 7.35 for the second. The second binds more tightly here.

`CCO[C@@H]1C=C(C(=O)O)C[C@H](N)[C@H]1NC(C)=O` showed a pKi of 6.74.
